Data: publication PMC10252614 (International Journal of Molecular Sciences, 2023)

Key:
GluN1/GluN2B receptor = molecular target: T1, GluN1/GluN2B receptor (Homo sapiens, UniProt Q05586+Q13224); assay: whole-cell patch-clamp on HEK293 cells expressing GluN1/GluN2B NMDAR; assay type: cell-based; conditions: HEK293, 10 µM, −60 mV, ± SEM (n = 5–6), 100% = full inhibition; read-out: Relative inhibition (RI) of GluN1/GluN2B NMDAR
T1 construct: expressed in transfected cells; host or cells: HEK293
Method: We tested the derivatives by the whole-cell patch-clamp method at a concentration of 10 μM under steady-state conditions in the presence of the saturating concentrations of NMDAR (co-)agonists (L-glutamate and glycine). […] Whole-cell patch-clamp recordings were performed using an Axopatch 200B amplifier (Molecular Devices, LLC., San Jose, CA, USA) at a holding membrane potential of −60 mV. HEK293 cells were co-transfected with DNA vectors encoding human versions of the GluN1-4a (GluN1) and GluN2B subunits and green fluorescent protein (GFP) in a 1:1:1 ratio using 0.9 μL PolyMag reagent (OZ Biosciences SAS, Marseille, France) in 50 μL Opti-MEM I [56, 57]. After 15 min on a magnetic plate, HEK293 cells were trypsinized and resuspended in Opti-MEM I medium containing 1% FBS, 2 mM MgCl2 and 3 mM kynurenic acid (to reduce cell death caused by activation of NMDARs). Electrophysiological measurements were performed 24–48 h after completion of transfection at room temperature. The extracellular recording solution (ECS) contained (in mM): 160 NaCl, 2.5 KCl, 10 HEPES, 10 D-glucose, 0.2 EDTA, and 0.7 CaCl2 (pH 7.3 with NaOH). […] A microprocessor-controlled rapid perfusion system with a time constant for solution exchange around the recorded cell of ~20 ms was used. Currents were low-pass filtered at 2 kHz using an eight-pole Bessel filter, digitized at 5 kHz, and recorded using the pCLAMP 10 program (Molecular Devices, LLC., San Jose, CA, USA). The co-agonist glycine (100 µM) was applied throughout the recording, and the agonist L-glutamate (1 mM) was used to elicit responses of GluN1/GluN2B receptors.

human BChE (hBChE) = molecular target: T2, human BChE (hBChE) (Homo sapiens, UniProt P06276); assay: hBChE inhibition, modified Ellman's method; assay type: biochemical; conditions: 10^-6 M
T2 construct: made in house
Method: (§1) N-Methylpropargylamine-quinazolines were tested for their inhibitory potency against human AChE (hAChE) and human BChE (hBChE) enzymes using the modified spectrophotometric method of Ellman et al..
(§2) The human recombinant BChE and AChE were prepared at the Department of Toxicology and Military Pharmacy (Faculty of Military Health Sciences, Hradec Kralove, Czech Republic). 5,5′-dithiobis(2-nitrobenzoic acid) (Ellman’s reagent, DTNB), phosphate buffer (PB, pH 7.4), acetylthiocholine (ATC) and butyrylthiocholine (BTC), were purchased from Sigma-Aldrich, Prague, Czech Republic. For measuring purposes, polystyrene Nunc 96-well microplates with a flat-bottom shape (ThermoFisher Scientific, Waltham, MA, USA) were utilized. All the assays were carried out in 0.1 M KH2PO4/K2HPO4 buffer, pH 7.4. Enzyme solutions were prepared at 2.0 units/mL in 2 mL aliquots. The assay medium consisted of a 0.1 M phosphate buffer (pH 7.4), 0.01 M DTNB, the enzyme, and 0.01 M substrate (ATC/BTC iodide solution). Concentration 1 µM was tested and the % of inhibition was calculated. Tested compounds were pre-incubated for 5 min. The reaction was started by immediate addition of 20 μL of the substrate. […] Each concentration was assayed in triplicate. Software GraphPad Prism 5 (San Diego, CA, USA) was used for the statistical data evaluation.

human AChE (hAChE) = molecular target: T3, human AChE (hAChE) (Homo sapiens, UniProt P22303); assay: hAChE inhibition, modified Ellman's method; assay type: biochemical; conditions: read-out: % of AChE inhibition
T3 construct: made in house
Method: as §1, §2

in vitro = conditions: human

T2 sequence (P06276 29-602): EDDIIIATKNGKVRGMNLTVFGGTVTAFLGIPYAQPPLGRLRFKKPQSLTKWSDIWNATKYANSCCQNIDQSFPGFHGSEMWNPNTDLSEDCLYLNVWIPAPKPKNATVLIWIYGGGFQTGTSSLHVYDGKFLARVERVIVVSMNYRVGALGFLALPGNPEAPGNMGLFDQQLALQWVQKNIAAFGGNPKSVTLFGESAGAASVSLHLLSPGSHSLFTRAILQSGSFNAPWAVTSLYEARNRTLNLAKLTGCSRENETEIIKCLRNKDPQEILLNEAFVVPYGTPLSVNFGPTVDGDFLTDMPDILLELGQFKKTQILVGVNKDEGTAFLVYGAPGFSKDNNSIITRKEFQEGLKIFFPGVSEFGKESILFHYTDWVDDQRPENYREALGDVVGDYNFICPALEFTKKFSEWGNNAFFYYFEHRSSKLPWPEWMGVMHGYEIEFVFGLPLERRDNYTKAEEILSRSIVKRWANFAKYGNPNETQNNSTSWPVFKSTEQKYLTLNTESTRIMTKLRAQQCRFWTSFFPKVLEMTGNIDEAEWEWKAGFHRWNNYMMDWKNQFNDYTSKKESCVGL
T3 sequence (P22303 32-614): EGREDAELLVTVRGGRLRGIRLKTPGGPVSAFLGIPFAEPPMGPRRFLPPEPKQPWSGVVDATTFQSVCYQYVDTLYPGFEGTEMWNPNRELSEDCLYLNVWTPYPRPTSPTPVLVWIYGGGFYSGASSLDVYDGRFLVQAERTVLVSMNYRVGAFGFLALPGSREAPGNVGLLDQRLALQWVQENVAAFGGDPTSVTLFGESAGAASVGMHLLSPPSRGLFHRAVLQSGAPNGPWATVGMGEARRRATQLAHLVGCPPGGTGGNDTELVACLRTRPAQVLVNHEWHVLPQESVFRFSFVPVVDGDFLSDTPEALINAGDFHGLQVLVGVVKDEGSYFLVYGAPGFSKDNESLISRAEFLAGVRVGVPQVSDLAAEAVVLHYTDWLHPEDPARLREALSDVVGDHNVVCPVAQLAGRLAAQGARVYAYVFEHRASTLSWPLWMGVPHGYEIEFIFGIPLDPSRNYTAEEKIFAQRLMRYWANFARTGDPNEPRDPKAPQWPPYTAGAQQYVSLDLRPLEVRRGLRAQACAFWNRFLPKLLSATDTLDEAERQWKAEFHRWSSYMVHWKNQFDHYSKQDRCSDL
T1 sequence (Q13224 27-1484, other chains not shown): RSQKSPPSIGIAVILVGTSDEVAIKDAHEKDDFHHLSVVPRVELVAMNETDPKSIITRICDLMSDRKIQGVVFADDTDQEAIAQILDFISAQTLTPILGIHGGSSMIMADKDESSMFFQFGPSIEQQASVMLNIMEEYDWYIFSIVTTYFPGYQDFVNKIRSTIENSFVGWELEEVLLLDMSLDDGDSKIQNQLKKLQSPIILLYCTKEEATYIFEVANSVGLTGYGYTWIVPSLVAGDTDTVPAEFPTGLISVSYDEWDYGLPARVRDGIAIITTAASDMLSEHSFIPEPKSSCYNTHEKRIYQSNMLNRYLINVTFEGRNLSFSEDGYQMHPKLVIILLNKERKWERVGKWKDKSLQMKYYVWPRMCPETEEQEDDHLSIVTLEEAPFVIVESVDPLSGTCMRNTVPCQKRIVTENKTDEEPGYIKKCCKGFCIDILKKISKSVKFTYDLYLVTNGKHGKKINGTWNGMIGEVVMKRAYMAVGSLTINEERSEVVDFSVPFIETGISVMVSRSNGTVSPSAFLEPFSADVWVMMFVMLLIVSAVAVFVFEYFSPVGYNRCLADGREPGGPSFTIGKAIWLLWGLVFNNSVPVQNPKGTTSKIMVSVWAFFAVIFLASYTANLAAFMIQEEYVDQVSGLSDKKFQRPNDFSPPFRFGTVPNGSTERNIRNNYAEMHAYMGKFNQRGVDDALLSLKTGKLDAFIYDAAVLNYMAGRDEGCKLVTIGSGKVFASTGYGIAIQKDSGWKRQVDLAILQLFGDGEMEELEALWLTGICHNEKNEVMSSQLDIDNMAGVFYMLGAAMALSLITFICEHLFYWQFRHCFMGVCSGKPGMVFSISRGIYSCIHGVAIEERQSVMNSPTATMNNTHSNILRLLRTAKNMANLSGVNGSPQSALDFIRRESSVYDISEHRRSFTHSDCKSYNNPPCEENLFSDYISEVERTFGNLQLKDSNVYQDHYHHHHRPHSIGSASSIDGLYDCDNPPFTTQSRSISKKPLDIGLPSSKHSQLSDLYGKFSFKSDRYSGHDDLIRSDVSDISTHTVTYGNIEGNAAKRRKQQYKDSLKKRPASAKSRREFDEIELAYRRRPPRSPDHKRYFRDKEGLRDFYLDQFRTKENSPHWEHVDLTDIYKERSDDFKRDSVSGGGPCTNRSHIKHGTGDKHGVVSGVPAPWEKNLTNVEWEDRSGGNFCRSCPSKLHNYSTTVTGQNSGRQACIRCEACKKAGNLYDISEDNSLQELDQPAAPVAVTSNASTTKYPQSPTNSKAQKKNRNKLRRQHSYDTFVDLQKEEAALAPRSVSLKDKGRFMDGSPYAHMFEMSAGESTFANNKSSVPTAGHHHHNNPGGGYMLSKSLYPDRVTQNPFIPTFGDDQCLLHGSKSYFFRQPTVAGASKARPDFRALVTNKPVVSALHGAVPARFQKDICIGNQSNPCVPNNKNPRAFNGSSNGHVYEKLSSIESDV

Row | Compound | inhibition at 10 µM (GluN1/GluN2B receptor) | inhibition at 1 µM (human BChE (hBChE)) | inhibition at 1 µM (human AChE (hAChE)) | IC50 at 24 h (in vitro)
1 | COc1ccc2nc3c(c(N)c2c1)CCCC3 [7-MEOTA, reference compound] | ~60% | 18% | – | –
2 | C#CCN(C)c1nc(N)c2ccccc2n1 [I-6a, N2-methyl-N2-(prop-2-yn-1-yl)quinazoline-2,4-diamine] | – | 0% | 5% | –
3 | C#CCN(C)c1nc(NC)c2ccccc2n1 [I-6b, N2,N4-dimethyl-N2-(prop-2-yn-1-yl)quinazoline-2,4-diamine] | – | 3% | 5% | –
4 | C#CCN(C)c1nc(NCC)c2ccccc2n1 [I-6c, N4-ethyl-N2-methyl-N2-(prop-2-yn-1-yl)quinazoline-2,4-diamine] | – | 0% | 4% | –
5 | C#CCN(C)c1nc(NC(C)C)c2ccccc2n1 [I-6d, N2-methyl-N2-(prop-2-yn-1-yl)-N4-(propan-2-yl)quinazoline-2,4-diamine] | – | 1% | 4% | –
6 | C#CCN(C)c1nc(NCCOC)c2ccccc2n1 [I-6f, N4-(2-methoxyethyl)-N2-methyl-N2-(prop-2-yn-1-yl)quinazoline-2,4-diamine] | – | 1% | 5% | –
7 | C#CCN(C)c1nc(NC2CC2)c2ccccc2n1 [I-6g, N4-cyclopropyl-N2-methyl-N2-(prop-2-yn-1-yl)quinazoline-2,4-diamine] | – | 2% | 4% | –
8 | C#CCN(C)c1nc(N)c2ccc(Cl)cc2n1 [II-6a, 7-chloro-N2-methyl-N2-(prop-2-yn-1-yl)quinazoline-2,4-diamine] | – | 2% | 7% | –
9 | C#CCN(C)c1nc(NC)c2ccc(Cl)cc2n1 [II-6b, 7-chloro-N2,N4-dimethyl-N2-(prop-2-yn-1-yl)quinazoline-2,4-diamine] | – | 2% | 15% | –
10 | C#CCN(C)c1nc(NCC)c2ccc(Cl)cc2n1 [II-6c, 7-chloro-N4-ethyl-N2-methyl-N2-(prop-2-yn-1-yl)quinazoline-2,4-diamine] | – | 0% | 4% | –
11 | C#CCN(C)c1nc(NC(C)C)c2ccc(Cl)cc2n1 [II-6d, 7-chloro-N2-methyl-N2-(prop-2-yn-1-yl)-N4-(propan-2-yl)quinazoline-2,4-diamine] | – | 3% | 1% | –
12 | C#CCN(C)c1nc(NCCOC)c2ccc(Cl)cc2n1 [II-6f, 7-chloro-N4-(2-methoxyethyl)-N2-methyl-N2-(prop-2-yn-1-yl)quinazoline-2,4-diamine] | – | 2% | 9% | –
13 | C#CCN(C)c1nc(NC2CC2)c2ccc(Cl)cc2n1 [II-6g, 7-chloro-N4-cyclopropyl-N2-methyl-N2-(prop-2-yn-1-yl)quinazoline-2,4-diamine] | – | 0% | 4% | –
14 | C#CCN(C)c1nc(NC)c2cc(OC)ccc2n1 [III-6b, 6-methoxy-N2,N4-dimethyl-N2-(prop-2-yn-1-yl)quinazoline-2,4-diamine] | – | 1% | 4% | –
15 | C#CCN(C)c1nc(NCC)c2cc(OC)ccc2n1 [III-6c, N4-ethyl-6-methoxy-N2-methyl-N2-(prop-2-yn-1-yl)quinazoline-2,4-diamine] | – | 2% | 7% | –
16 | C#CCN(C)c1nc(NC(C)C)c2cc(OC)ccc2n1 [III-6d, 6-methoxy-N2-methyl-N2-(prop-2-yn-1-yl)-N4-(propan-2-yl)quinazoline-2,4-diamine] | – | 2% | 2% | –
17 | C#CCN(C)c1nc(NCCCC)c2cc(OC)ccc2n1 [III-6e, N4-butyl-6-methoxy-N2-methyl-N2-(prop-2-yn-1-yl)quinazoline-2,4-diamine] | – | 1% | 8% | –
18 | C#CCN(C)c1nc(NCCOC)c2cc(OC)ccc2n1 [III-6f, 6-methoxy-N4-(2-methoxyethyl)-N2-methyl-N2-(prop-2-yn-1-yl)quinazoline-2,4-diamine] | – | 1% | 6% | –
19 | C#CCN(C)c1nc(NC2CC2)c2cc(OC)ccc2n1 [III-6g, N4-cyclopropyl-6-methoxy-N2-methyl-N2-(prop-2-yn-1-yl)quinazoline-2,4-diamine] | – | 0% | 5% | –
20 | C#CCN(C)c1nc(NC2CCCCC2)c2cc(OC)ccc2n1 [III-6h, N4-cyclohexyl-6-methoxy-N2-methyl-N2-(prop-2-yn-1-yl)quinazoline-2,4-diamine] | – | 2% | 3% | –
21 | Nc1c2c(nc3ccccc13)CCCC2 [THA, tacrine, reference compound] | – | – | – | 122.11 ± 0.02 µM
